From patent US11066421B1, “Synthetic cinchona alkaloids against cancer” (Ares Pharmaceuticals, LLC, priority 2021, dated 2021)

Experiments:
[1] = system: U87 human GBM cells; assay: CB.17 SCID mouse xenograft model of human glioblastoma multiforme; type: in vivo; conditions: 5 days per week for 4 weeks
Procedure: Cell Lines. Human brain tumor cell line U87 (ATCC HTB-14) was obtained from American Type Culture Collection (Rockville, Md.) and maintained as a continuous cell line in DMEM supplemented with 10% fetal calf serum (FCS), 4 mm glutamine, 100 units/ml penicillin G, and […] streptomycin sulfate. All of the tissue culture reagents were obtained from Life Technologies, Inc. Inc. (Gaithersburg, Md.).
Mice. Female CB.17 SCID mice were obtained from Taconic (Germantown, N.Y.) and housed in a specific-pathogen-free room located in a secure indoor facility with controlled temperature, humidity, and noise levels. Mice were housed in micro-isolator cages and fed with autoclaved rodent chow. Water was also autoclaved and supplemented with trimethoprim/sulfomethoxazol 3 days a week. The animal protocol used in this study was approved by the local Institutional Animal Care and Use Committee (IACUC), and all of the animal care procedures conformed to the Guide for the Care and Use of Laboratory Animals (National Research Council, National Academy Press, Washington D.C. 1996).
SCID Mouse Xenograft Model of Human Glioblastoma Multiforme (GBM). The predictive value of the mouse xenograft models for clinical effectiveness of anti-cancer drugs has been confirmed for several drugs (Richmond A, Su. Y. Mouse xenograft models vs GEM models for human cancer therapeutics. Dis Model Mech. 2008; 1(2-3):78-82. doi:10.1242/dmm.000976). CB.17 SCID mice (8 wk. old, female) were inoculated subcutaneously with 1×10^6 U87 human GBM cells (1×10^6/inoculum, volume: 200 μL) in the right hind leg, as described (R. K. Narla et al., 2001, Clin Cancer Res. 7:2124-33). Mice were treated daily with intraperitoneal injections of vehicle (50 μL DMSO) or AP-1 (125 μg˜5 mg/kg/day in 50 μL DMSO) according to a 5 days on 2 days off schedule for 4 consecutive weeks. Tumor growth was determined by the measurement of visible tumors with a caliper in three dimensions three days a week and expressed as tumor volume in cubic millimeters (mm^3). Tumor volumes were calculated using the formula for the volume of a prolate spheroid, V=4/3×3.14×length/2×width/2×depth/2.

[2] = system: PC3 human prostate cancer cells; assay: CB.17 SCID mouse xenograft model of human prostate cancer; type: in vivo; conditions: 2 mg/kg i.p. twice daily, 5 days on 2 days off
Procedure: Cell Lines. Human prostate cancer cell line PC3 (ATCC CRL-1435) was obtained from American Type Culture Collection (Rockville, Md.) and maintained as a continuous cell line in DMEM supplemented with 10% fetal calf serum (FCS), 4 mm glutamine, 100 units/ml penicillin G, and […] streptomycin sulfate. All of the tissue culture reagents were obtained from Life Technologies, Inc. Inc. (Gaithersburg, Md.). Mice. Female CB.17 SCID mice were obtained from Taconic (Germantown, N.Y.) and housed in a specific-pathogen-free room located in a secure indoor facility with controlled temperature, humidity, and noise levels. Mice were housed in micro-isolator cages and fed with autoclaved rodent chow. Water was also autoclaved and supplemented with trimethoprim/sulfamethoxazol 3 days a week. The animal protocol used in this study was approved by the Drug Discovery Enterprises Animal Care and Use Committee (IACUC), and all of the animal care procedures conformed to the Guide for the Care and Use of Laboratory Animals (National Research Council, National Academy Press, Washington D.C. 1996). […] The size of subcutaneous tumors were measured on day 16 and day 18 to evaluate the ability of AP-8 to inhibit tumor growth in this SCID mouse xenograft model of prostate cancer. Tumor volumes were calculated using the formula for the volume of a prolate spheroid, V=4/3×3.14×length/2×width/2×depth/2.

| SMILES | tumor progression ([1]; 5 mg/kg/dose i.p. daily) | average tumor size ([1]; day 15, 5 mg/kg/day i.p.) [mm^3] | average tumor size ([1]; day 30, 5 mg/kg/day i.p.) [mm^3] | tumor size ([1]; day 44, 5 mg/kg/day i.p.) [mm^3] | tumor progression [2] | average tumor volume ([2]; day 18, from day 7) [mm^3] |
| --- | --- | --- | --- | --- | --- | --- |
| C=CC1CN2CCC1CC2C(Oc1cc(OC(c2ccnc3ccccc23)C2CC3CCN2CC3C=C)nc(OC(c2ccnc3ccccc23)C2CC3CCN2CC3C=C)n1)c1ccnc2ccccc12 (stereo not drawn) [AP-1, 2,4,6-Tri(9-O-cinchoninyl)pyrimidine] | significantly slowed down the tumor progression | 4.1±1.1 | 37.8±16.2 | 956.0±291.3 |  |  |
| CCC1CN2CCC1CC2C(Oc1cc(OC(c2ccnc3ccc(OC)cc23)C2CC3CCN2CC3CC)nc(OC(c2ccnc3ccc(OC)cc23)C2CC3CCN2CC3CC)n1)c1ccnc2ccc(OC)cc12 (stereo not drawn) [AP-8, 2,4,6-Tri (9-O-dihydroquinidinyl)pyrimidine] |  |  |  |  | significantly slowed down the tumor progression | 45.1±7.8 |
